According to BindingDB's records for patent US12410160 (Gilead Sciences, 2025):

Assays:
Ketohexokinase = target: T1, Ketohexokinase (Human, UniProt P50053); assay: KHK Biochemical Assay
T1 sequence (P50053 whole entry): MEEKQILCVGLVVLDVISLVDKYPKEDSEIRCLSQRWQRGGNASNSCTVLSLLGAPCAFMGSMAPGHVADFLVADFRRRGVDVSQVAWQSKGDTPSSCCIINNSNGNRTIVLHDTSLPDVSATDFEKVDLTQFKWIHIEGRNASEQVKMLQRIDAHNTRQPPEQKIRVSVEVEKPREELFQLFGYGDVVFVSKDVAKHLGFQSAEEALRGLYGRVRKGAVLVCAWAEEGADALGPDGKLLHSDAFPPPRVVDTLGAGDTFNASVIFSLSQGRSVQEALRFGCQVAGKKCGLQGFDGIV
Method: (§1) Compounds were tested for KHK enzyme inhibition in a high-throughput 384-well assay format using the ADP-Glo assay (Promega) in buffer consisting of 50 mM Hepes (pH 7.4), 140 mM KCl, 5 mM MgCl2 and 0.01% Triton-X. 0.2 nM. […] Compounds were serially diluted (1:3) in DMSO. […] The plates were incubated at room temperature for 4 hours before adding ADP-Glo reagent to quench the enzyme reaction, followed by incubation at room temperature for 1 hour. The ADP-Glo detection reagent was then added to the plates and luminescence was measured on the Envision plate reader after 1 hour.

[1] = target: T2, Isoform A of Ketohexokinase (Peripheral) (Human, UniProt P50053); assay: KHK Biochemical Assay
T2 sequence (P50053 whole entry): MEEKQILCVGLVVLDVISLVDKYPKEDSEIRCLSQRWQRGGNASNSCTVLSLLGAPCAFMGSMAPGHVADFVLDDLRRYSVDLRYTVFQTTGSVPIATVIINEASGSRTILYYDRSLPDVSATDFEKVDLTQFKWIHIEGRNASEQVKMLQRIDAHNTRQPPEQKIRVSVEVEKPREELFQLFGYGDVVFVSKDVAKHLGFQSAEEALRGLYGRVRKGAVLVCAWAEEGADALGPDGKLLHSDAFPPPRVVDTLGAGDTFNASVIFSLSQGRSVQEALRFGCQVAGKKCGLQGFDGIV
Method: as §1

SMILES	IC50 (Ketohexokinase) [nM]	IC50 [1] [nM]
C[C@H]1[C@H](CO)CN1c1nc2c(c(-c3ccc(C(N)=O)cc3)n1)CCC2 (racemic) [US12410160, Example 267]	> 5000	–
C[C@H]1[C@H](F)CN1c1nc2c(c(-c3ccc4c(c3)C(=O)N(C)C4)n1)CCC2 [US12410160, Example 203]	29.8	66.5
C[C@H]1[C@H](O)CN1c1nc2c(c(-c3cccc(S(N)(=O)=O)c3)n1)CCC2 [US12410160, Example 209]	55.3	35.4
C[C@H]1CCN1c1nc2c(c(-c3cccc(S(N)(=O)=O)n3)n1)CCC2 [US12410160, Example 223]	26.9	33.7
C[C@H]1CCN1c1nc2c(c(-c3ccnc(S(N)(=O)=O)c3)n1)CCC2 [US12410160, Example 224]	114	155
C[C@H]1CCN1c1nc2c(c(-c3cccc(C4(N)CC4)c3)n1)CCC2 [US12410160, Example 225]	343	294
C[C@H]1CCN1c1nc(-c2cccc(C(N)=O)c2)c2c(n1)C1CC1C2 (some centres not stated) [US12410160, Example 272]	319	267
C[C@H]1CCN1c1nc2c(c(-c3ccnc(F)c3)n1)CCC2 [US12410160, Example 281]	–	340
C[C@H]1[C@H](F)CN1c1nc2c(c(-c3cccc(S(N)(=O)=O)c3)n1)CCOC2 [US12410160, Example 287]	1270	696
C[C@H]1CCN1c1nc2c(c(-c3ccc(C4(NS(C)(=O)=O)CC4)cc3)n1)CCC2 [US12410160, Example 306]	–	279
CC1CCCc2nc(N3CC[C@@H]3C)nc(-c3ccccc3)c21 (some centres not stated) [US12410160, Example 340]	–	> 50000
C[C@H]1CCN1c1nc2c(c(-c3cncn3C)n1)CCC2 [US12410160, Example 341]	111	133
C[C@H]1[C@H](F)CN1c1nc2c(c(-c3cccc(CN)c3)n1)CCC2 [US12410160, Example 352]	29.8	35.6
CCOC(=O)NCc1ccc(-c2nc(N3CC[C@@H]3C)nc3c2CCC3)cc1 [US12410160, Example 358]	293	435
C[C@H]1CCN1c1nc2c(c(-c3ccc(CNS(C)(=O)=O)cc3)n1)CCC2 [US12410160, Example 361]	30.3	68.4
C[C@H]1[C@H](O)CN1c1nc2c(c(-c3ccc(C(C)(C)O)cc3)n1)CCC2 [US12410160, Example 371]	187	442
C[C@H]1CCN1c1nc2c(c(-c3nc4ccccc4[nH]3)n1)CCC2 [US12410160, Example 389]	382	296
C[C@H]1CCN1c1nc(-c2ccc(C(N)=O)cc2)c2cn[nH]c2n1 [US12410160, Example 401]	4630	–
C[C@H]1[C@H](O)CN1c1nc(-c2ccc3c(c2)CCC32COCCC(=O)N2)c2c(n1)C(F)(F)CC2 (some centres not stated) [US12410160, Example 552]	39.2	–
NC1(c2ccc(-c3nc(N4CCC4C4CC(F)(F)C4)nc4c3CCC4(F)F)cc2)COC1 (configuration not stated) [US12410160, Example 573]	–	> 100
C[C@H]1CCN1c1nc2c(c(-c3ccc4c(c3)CN(S(=O)(=O)CC#N)CC4)n1)CCC2 [US12410160, Example 604]	239	–
C[C@H]1[C@H](O)CN1c1nc(-c2ccc3c(c2)CNCC3)c2c(n1)C(F)(F)CC2 [US12410160, Example 612]	32.6	–
C[C@H]1CCN1c1nc2c(c(-c3cn(C4CC4)nn3)n1)CCC2 [US12410160, Example 644]	220	–
C[C@H]1CCN1c1nc2c(c(-c3cn(CCO)nn3)n1)CCC2 [US12410160, Example 645]	158	–
C[C@H]1CCN1c1nc(-c2ccc(-n3ccnn3)cc2)c2c(n1)C(F)(F)CC2 [US12410160, Example 655]	25.1	–
C[C@H]1[C@H](O)CN1c1nc(-c2ccc3c(c2)CCS3(=N)=O)c2c(n1)C(F)(F)CC2 (some centres not stated) [US12410160, Example 664]	17.3	–
C[C@H]1CCN1c1nc(-c2ccc(C#N)c(S(C)(=N)=O)c2)c2c(n1)C(F)(F)CC2 (some centres not stated) [US12410160, Example 798]	51.9	–
C[C@H]1[C@H](O)CN1c1nc(-c2ccc3c(c2)S(C)(=O)=NC3)c2c(n1)C(F)(F)CC2 (some centres not stated) [US12410160, Example 805]	18	–

Further compounds by falling IC50 (Ketohexokinase), results first:

IC50 (Ketohexokinase) [nM]	IC50 [1] [nM]	SMILES
16.4	–	C[C@H]1CCN1c1nc(-c2cccc(-n3ccnn3)c2)c2c(n1)C(F)(F)CC2 [US12410160, Example 654]
16	24.4	C[C@H]1CCN1c1nc2c(c(-c3ccc4c(c3)C(=O)N(C)C4)n1)CCC2 [US12410160, Example 206]
15.8	28.6	C[C@H]1CCN1c1nc2c(c(-c3ccc4c(c3)CCNC4=O)n1)CCC2 [US12410160, Example 283]
15.5	–	C[C@H]1[C@H](O)CN1c1nc(-c2cn(C3CNC3)nn2)c2c(n1)C(F)(F)CC2 [US12410160, Example 647]
15.3	–	C[C@H]1CCN1c1nc2c(c(-c3cccc(C4CCS(=O)(=O)N4)c3)n1)CCC2 (some centres not stated) [US12410160, Example 606]
14.3	–	C[C@H]1[C@H](O)CN1c1nc(-c2cccc(-n3cnnc3)c2)c2c(n1)C(F)(F)CC2 [US12410160, Example 619]
9.2	–	C[C@H]1[C@H](O)CN1c1nc(-c2cccc(N=S3(=O)CCOCC3)c2)c2c(n1)C(F)(F)CC2 [US12410160, Example 673]
9.2	–	COC(=O)N[C@@H]1COc2cc(-c3nc(N4C[C@@H](O)[C@@H]4C)nc4c3CCC4(F)F)ccc21 [US12410160, Example 815]
8.8	10.3	C[C@H]1[C@H](O)CN1c1nc(-c2cccc(S(=N)(=O)CC#N)c2)c2c(n1)C(F)(F)CC2 (some centres not stated) [US12410160, Example 628]
8.2	–	C[C@H]1CCN1c1nc(-c2cn(C3CNC3)nn2)c2c(n1)C(F)(F)CC2 [US12410160, Example 653]
7.3	–	CCS(=O)(=O)N[C@H]1COc2cc(-c3nc(N4C[C@@H](O)[C@@H]4C)nc4c3CCC4(F)F)ccc21 [US12410160, Example 624]
6.6	–	C[C@H]1CCN1c1nc(-c2ccc([C@H](N)C(F)F)cc2)c2c(n1)C(F)(F)CC2 [US12410160, Example 650]
5.7	–	N#C[C@H]1CCN1c1nc(-c2ccc([C@@H](N)C(F)F)cc2)c2c(n1)C(F)(F)CC2 [US12410160, Example 660]
5.6	–	C[C@H]1[C@H](O)CN1c1nc(-c2ccc3c(c2)OC(C(F)F)CNC3=O)c2c(n1)C(F)(F)CC2 (some centres not stated) [US12410160, Example 597]
5.4	–	C[C@H]1[C@H](O)CN1c1nc(-c2ccc3c(c2)C(=O)N(C)C3)c2c(n1)C(F)(F)CC2 [US12410160, Example 236]
4.3	–	C[C@H]1[C@H](O)CN1c1nc(-c2ccc3c(c2)C(NS(C)(=O)=O)CO3)c2c(n1)C(F)(F)CC2 (some centres not stated) [US12410160, Example 613]
3.7	13	C[C@H]1[C@H](O)CN1c1nc(-c2ccc3c(c2)COC[C@@H]3NS(=O)(=O)CF)c2c(n1)C(F)(F)CC2 [US12410160, Example 580]
3.7	9.3	FC1(F)CCc2c(-c3ccc4c(c3)OC[C@@H]4NC3COC3)nc(N3CC[C@@H]3C(F)(F)F)nc21 [US12410160, Example 588]
2.8	–	C[C@H]1[C@H](O)CN1c1nc(-c2ccc(OC(F)F)c(S(C)(=N)=O)c2)c2c(n1)C(F)(F)CC2 (some centres not stated) [US12410160, Example 532]
1.8	4.2	C[C@H]1[C@H](O)CN1c1nc2c(c(-c3ccc4c(N)nccc4c3)n1)CCC2 [US12410160, Example 385]
1.8	71.3	COC(=O)N[C@H]1COc2cc(-c3nc(N4C[C@@H](O)[C@@H]4C)nc4c3CCC4(F)F)ccc21 [US12410160, Example 814]
1.3	–	C[C@H]1[C@H](O)CN1c1nc(-c2ccc3c(c2)C(NS(C)(=O)=O)CC3)c2c(n1)C(F)(F)CC2 (some centres not stated) [US12410160, Example 621]
1.2	15.9	C[C@H]1[C@H](O)CN1c1nc(-c2ccc3c(c2)COCC32CCC(=O)N2)c2c(n1)C(F)(F)CC2 (some centres not stated) [US12410160, Example 639]
0.9	–	C[C@H]1[C@H](O)CN1c1nc(-c2ccc3c(c2)S(=O)(=O)CC3NS(C)(=O)=O)c2c(n1)C(F)(F)CC2 (some centres not stated) [US12410160, Example 665]
0.9	0.5	COc1ccc(-c2nc(N3CC[C@@H]3C(F)(F)F)nc3c2CCC3(F)F)cc1[S@@](C)(=N)=O [US12410160, Example 825]
0.7	1.3	Cc1cc(-c2nc(N3CC[C@@H]3C(F)(F)F)nc3c2CCC3(F)F)ccc1C1(N)COC1 [US12410160, Example 586]
